Results: US20250228243A1, “METHODS AND COMPOSITIONS FOR PPO HERBICIDE TOLERANCE” (Monsanto Technology LLC, priority 2024, published 2025)

Legend:
Format in all cases: in vivo
Settings in all cases: 15 days after application, 2-4 leaf stage, 0.5% v/v Mero, scale 0-100 (percentage of leaf area damaged), average of 4 replicates
[1] = system: Soybean - Inbred, Conventional; assay: Herbicide injury rating, greenhouse, conventional soybean
Protocol: (§1) Seeds of the regenerated transgenic plants described above were sown in 12-cm tall plastic pots containing standard soil (14.7% sand, 19.9% clay, 65.4% silt, and 1.8% organic matter). Transgenic cotton and corn seed were sown at a density of one seed per pot, whereas soybean was sown at a density of three seeds per pot. Plants were grown in a greenhouse with 60% relative humidity in a light cycle of 13 hour day and 11 hour night. The temperature was kept at 23° C. during the day and 12° C. at night. Herbicide tolerance of transgenic soybean, inbred corn, hybrid corn, and cotton plants, to herbicidal formulations comprising any of A1 to A3 and A7 was measured by applying respective formulations to plants at the 2-4 leaf stage (corresponding to BBCH 12-14) at dose rates of 100 or 200 g ai/ha. Methylated rapeseed oil (Mero) is used as an adjuvant and added to the spray mix for each herbicide at 0.5% v/v. Plants were visually assessed for herbicide injury at the following time points: 8 days, 15 days, 22 days after application. Unsprayed transgenic plants were used for phenotypic comparison with unsprayed wild-type plants.

[2] = system: Soybean - Inbred, PPO-Transgenic; assay: Herbicide tolerance evaluation, greenhouse, PPO-transgenic soybean expressing HemG PPO H_N90
Protocol: as §1, with “Plant transformation vectors were constructed for expressing a chloroplast transit peptide operably linked to the PPO H_[…] (SEQ ID NO:1) in transgenic soybean, inbred corn, hybrid corn, and cotton plants, and introduced into seed-derived explants of soybean, inbred and hybrid corn, and cotton, respectively, through Agrobacterium tumefaciens-mediated transformation using standard methods known in the art. The regenerated R0 plants were analyzed to select for events with a single copy insertion for advancement to R1 nursery for R1 seed production. Seeds” for “Seeds”

[3] = system: Corn - Inbred, Conventional; assay: Herbicide injury rating, greenhouse, conventional inbred corn
Protocol: as §1

[4] = system: Corn - Inbred, PPO-Transgenic; assay: Herbicide tolerance evaluation, greenhouse, PPO-transgenic inbred corn expressing HemG PPO H_N90
Protocol: as §1, with “Plant transformation vectors were constructed for expressing a chloroplast transit peptide operably linked to the PPO H_[…] (SEQ ID NO:1) in transgenic soybean, inbred corn, hybrid corn, and cotton plants, and introduced into seed-derived explants of soybean, inbred and hybrid corn, and cotton, respectively, through Agrobacterium tumefaciens-mediated transformation using standard methods known in the art. The regenerated R0 plants were analyzed to select for events with a single copy insertion for advancement to R1 nursery for R1 seed production. Seeds” for “Seeds”

[5] = system: Corn - Hybrid, Conventional; assay: Herbicide injury rating, greenhouse, conventional hybrid corn
Protocol: as §1

[6] = system: Corn - Hybrid, PPO-Transgenic; assay: Herbicide tolerance evaluation, greenhouse, PPO-transgenic hybrid corn expressing HemG PPO H_N90
Protocol: as §1, with “Plant transformation vectors were constructed for expressing a chloroplast transit peptide operably linked to the PPO H_[…] (SEQ ID NO:1) in transgenic soybean, inbred corn, hybrid corn, and cotton plants, and introduced into seed-derived explants of soybean, inbred and hybrid corn, and cotton, respectively, through Agrobacterium tumefaciens-mediated transformation using standard methods known in the art. The regenerated R0 plants were analyzed to select for events with a single copy insertion for advancement to R1 nursery for R1 seed production. Seeds” for “Seeds”

[7] = system: Cotton - Inbred, Conventional; assay: Herbicide injury rating, greenhouse, conventional cotton
Protocol: as §1

[8] = system: Cotton - Inbred, PPO-Transgenic; assay: Herbicide tolerance evaluation, greenhouse, PPO-transgenic cotton expressing HemG PPO H_N90
Protocol: as §1, with “Plant transformation vectors were constructed for expressing a chloroplast transit peptide operably linked to the PPO H_[…] (SEQ ID NO:1) in transgenic soybean, inbred corn, hybrid corn, and cotton plants, and introduced into seed-derived explants of soybean, inbred and hybrid corn, and cotton, respectively, through Agrobacterium tumefaciens-mediated transformation using standard methods known in the art. The regenerated R0 plants were analyzed to select for events with a single copy insertion for advancement to R1 nursery for R1 seed production. Seeds” for “Seeds”

Row | Structure (SMILES) | Injury rating, Soybean - Inbred Conventional ([1]; 100 g ai/ha) | Injury rating, Soybean - Inbred Conventional ([1]; 200 g ai/ha) | Injury rating, Soybean - Inbred PPO-Transgenic ([2]; 100 g ai/ha) | Injury rating, Soybean - Inbred PPO-Transgenic ([2]; 200 g ai/ha) | Injury rating, Corn - Inbred Conventional ([3]; 100 g ai/ha) | Injury rating, Corn - Inbred Conventional ([3]; 200 g ai/ha) | Injury rating, Corn - Inbred PPO-Transgenic ([4]; 100 g ai/ha) | Injury rating, Corn - Inbred PPO-Transgenic ([4]; 200 g ai/ha) | Injury rating, Corn - Hybrid Conventional ([5]; 100 g ai/ha) | Injury rating, Corn - Hybrid Conventional ([5]; 200 g ai/ha) | Injury rating, Corn - Hybrid PPO-Transgenic ([6]; 100 g ai/ha) | Injury rating, Corn - Hybrid PPO-Transgenic ([6]; 200 g ai/ha) | Injury rating, Cotton - Inbred Conventional ([7]; 100 g ai/ha) | Injury rating, Cotton - Inbred Conventional ([7]; 200 g ai/ha) | Injury rating, Cotton - Inbred PPO-Transgenic ([8]; 100 g ai/ha) | Injury rating, Cotton - Inbred PPO-Transgenic ([8]; 200 g ai/ha)
1 | CCOC(=O)C(C)OC(=O)C1(Oc2cc(-n3c(=O)cc(C(F)(F)F)n(C)c3=O)c(F)cc2Cl)CC1 (stereo not shown) [Compound A1, 1-ethoxy-1-oxopropan-2-yl 1-{2-chloro-4-fluoro-5-[3-methyl-2,6-dioxo-4-(trifluoromethyl)-3,6-dihydropyrimidin-1 (2H)-yl]phenoxy}cyclopropanecarboxylate] | 100 | 100 | 0 | 0 | 100 | 100 | 0 | 0 | 100 | 100 | 0 | 0 | 100 | 100 | 0 | 0
2 | CC(OC(=O)C1(Oc2cc(-n3c(=O)cc(C(F)(F)F)n(C)c3=O)c(F)cc2Cl)CC1)C(=O)O (stereo not shown) [Compound A2, 2-{[(1-{2-chloro-4-fluoro-5-[3-methyl-2,6-dioxo-4-(trifluoromethyl)-3,6-dihydropyrimidin-1 (2H)-yl]phenoxy}cyclopropyl)carbonyl]oxy}propanoic acid] | 100 | 100 | 0 | 0 | 100 | 100 | 0 | 0 | 100 | 100 | 0 | 0 | 100 | 100 | 0 | 0
3 | COC(=O)C(C)OC(=O)C1(Oc2cc(-n3c(=O)cc(C(F)(F)F)n(C)c3=O)c(F)cc2Cl)CC1 (stereo not shown) [Compound A3, 1-methoxy-1-oxopropan-2-yl 1-{2-chloro-4-fluoro-5-[3-methyl-2,6-dioxo-4-(trifluoromethyl)-3,6-dihydropyrimidin-1 (2H)-yl]phenoxy}cyclopropanecarboxylate] | 100 | 100 | 0 | 0 | 100 | 100 | 0 | 0 | 100 | 100 | 0 | 0 | 100 | 100 | 0 | 0
4 | C=CCOC(=O)C(C)OC(=O)C1(Oc2cc(-n3c(=O)cc(C(F)(F)F)n(C)c3=O)c(F)cc2Cl)CC1 (stereo not shown) [Compound A7, 1-(allyloxy)-1-oxopropan-2-yl 1-{2-chloro-4-fluoro-5-[3-methyl-2,6-dioxo-4-(trifluoromethyl)-3,6-dihydropyrimidin-1 (2H)-yl]phenoxy}cyclopropanecarboxylate.] | 100 | 100 | 0 | 0 | 100 | 100 | 0 | 0 | 100 | 100 | 0 | 0 | 100− | 100 | 0 | 0
